Experimental data taken from patent US4320134A, “Inhibiton of thromboxane synthetase with 1-substituted imidazole compounds” (Ono Pharmaceutical Co., Ltd., priority 1978, dated 1982).
Structures can show the parent of a compound that is named as a salt.

How the values were obtained:
thromboxane synthetase [1] = target: T1, thromboxane synthetase (Oryctolagus cuniculus, UniProt G1TAZ9); assay: Inhibitory potency of imidazole compounds on thromboxane synthetase (conversion of prostaglandin H2 to thromboxane B2 by rabbit platelet microsomes); assay type: biochemical; settings: 24° C., 1 minute
T1 construct: from tissue; host or cells: rabbit platelets (microsomes)
T1 sequence (G1TAZ9 1-530): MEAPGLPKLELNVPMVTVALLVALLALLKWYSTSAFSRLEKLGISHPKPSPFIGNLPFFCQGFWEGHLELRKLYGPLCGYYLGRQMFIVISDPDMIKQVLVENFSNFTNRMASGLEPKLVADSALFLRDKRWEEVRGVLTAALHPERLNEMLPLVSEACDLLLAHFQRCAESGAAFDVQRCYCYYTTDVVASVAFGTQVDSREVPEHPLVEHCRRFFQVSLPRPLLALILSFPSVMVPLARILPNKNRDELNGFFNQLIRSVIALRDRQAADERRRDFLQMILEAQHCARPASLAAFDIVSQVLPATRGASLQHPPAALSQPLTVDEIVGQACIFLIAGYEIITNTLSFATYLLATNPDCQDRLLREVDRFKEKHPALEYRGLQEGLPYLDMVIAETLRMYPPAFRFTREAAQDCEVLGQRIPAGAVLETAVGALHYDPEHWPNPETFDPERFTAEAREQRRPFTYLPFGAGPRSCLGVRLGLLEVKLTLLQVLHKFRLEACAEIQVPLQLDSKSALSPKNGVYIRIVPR
Protocol: (1-C^14)-Prostaglandin H2, obtained by the enzymatic biosynthesis with ram seminal vesicle microsomes and (1-C^14)-arachidonic acid, was incubated with rabbit platelet microsomes containing 0.025 μM and 0.5 μM of the test compound at 24° C. for 1 minute. The termination of the reaction and the extraction of a radioactive materials were carried out by the addition of a mixture of ethyl acetate/methanol/0.2 M citric acid (30:4:1 by volume). […] A spot of thromboxane B2 was counted by a packard Radiochromatogram Scanner.

[2] = Acute toxicity (LD50), intravenous, mice; settings: mouse, in vivo, dd-stain male mice, 7 weeks old, Behrens-Karber method, read-out: median lethal dose (LD50)
Protocol: The median lethal dose (LD50) of N-(7-carboxyheptyl)imidazole and N-(6-methoxycarbonylhexyl)imidazole (known compound) were determined in dd-stain male mice (7 weeks old) by intravenous administration. The LD50 values were calculated according to the Behrens-Karber method.

thromboxane synthetase [3] = assay: Inhibitory effect on thromboxane synthetase, general statements; assay type: biochemical; settings: in words
thromboxane synthetase [4] = settings: in words; reported in the literature; cited from earlier work

Row | Structure (SMILES) | inhibition at 0.025 µM (thromboxane synthetase [1]) [%] | inhibition at 0.5 µM (thromboxane synthetase [1]) [%] | also measured
1 | O=C(O)CCCCCCn1ccnc1 [N-(6-carboxyhexyl)imidazole hydrochloride] | 10.1 | 76.1 | –
2 | O=C(O)CCCCCCCCCn1ccnc1 [N-(9-carboxynonyl)imidazole hydrochloride] | 20.2 | 72.5 | –
3 | O=C(O)CCCCCCCn1ccnc1 [N-(7-carboxyheptyl)imidazole, 1-(7-Carboxyheptyl)imidazole] | – | – | LD50 [2]: 560 mg/kg
4 | O=C(O)CCCCCCCCCCn1ccnc1 [N-(10-carboxydecyl)imidazole hydrochloride] | 9.2 | 40.4 | –
5 | COC(=O)CCCCCCn1ccnc1 [N-(6-methoxycarbonylhexyl)imidazole, reference compound] | 5.5 | 25.7 | inhibitory effect on thromboxane synthetase compared with imidazole or 1-methylimidazole (thromboxane synthetase [3]): stronger inhibitory effect; inhibitory effect on thromboxane synthetase, suitability as medication (thromboxane synthetase [3]): not completely satisfactory as a practical medication; LD50 [2]: 140 mg/kg
6 | c1c[nH]cn1 [imidazole] | – | – | inhibitory action for thromboxane synthetase (thromboxane synthetase [4]): weak
7 | O=C(O)CCCCCCCn1ccnc1 [1-(7-Carboxyheptyl)imidazole Hydrochloride] | 31.2 | 89 | –
8 | O=C(O)CCCCCCCCn1ccnc1 [N-(8-carboxyoctyl)imidazole hydrochloride] | 42.2 | 90.8 | –
9 | Cn1ccnc1 [1-methylimidazole] | – | – | inhibitory action for thromboxane synthetase (thromboxane synthetase [4]): weak
10 | O=C(O)CCCCCCCCCCCn1ccnc1 [N-(11-carboxyundecyl)imidazole hydrochloride] | 13.8 | 46.8 | –
